For data set [1] the following is noted: ref. [14]; cited from earlier work.
The subject of data set [2] is AMPK-mTOR signaling pathway. As to the kind of experiment: Detection of mTOR signaling marker proteins (p-AMPK, p-p70S6K) and LC3-II by western blot. Type of data set: cell-based, rat. The protocol: PC-12 cells were treated with neferine (7.5 μM) from 0-24 h. Cells treated with 0.3 μM of rapamycin (Rap) for 24 h were used as the positive control. Cell lysate was then harvested and analyzed for p-AMPK, AMPK, p-p70S6K, p70S6K and α-tubulin respectively. PC-12 cells were treated with 7.5 μM of neferine with or without AMPK inhibitor (compound C, CC, 5 μM) for 24 h for the detection of LC3-II marker. Cell lysates were analyzed for LC3 I/II and β-actin, respectively. After that, the membrane was further incubated with HRP-conjugated secondary antibodies for 60 minutes. Finally, protein bands were visualized by using the ECL Western Blotting Detection Reagents (Invitrogen).
In general terms: In western blotting, separated proteins are transferred to a membrane and probed.

Data set [3] relates to PC-12 cells. As to the kind of experiment: Quantification of autophagy GFP-LC3 puncta in PC-12 cells. The data set is classed as cell-based, rat. The procedure:
(§1) GFP-LC3 puncta formation was quantified as previously described. In brief, PC-12 cells grown on coverslips in a 6-well plate were fixed in 4% paraformaldehyde for 20 minutes at room temperature and then rinsed with PBS. Slides were mounted with FluorSave™ mounting media (Calbiochem, San Diego, Calif.) and examined by fluorescence microscopy. The number of GFP-positive cells with GFP-LC3 puncta formation was examined under the Nikon ECLIPSE 80i microscope. Representative images were captured with CCD digital camera Spot RT3™ (Diagnostic Instruments, Inc., Melville, N.Y.). To quantify for autophagy, the percentage of cells with punctate GFP-LC3 fluorescence was calculated by counting the number of the cells with punctate GFP-LC3 fluorescence in GFP-positive cells. A minimum of 150 cells from 3 randomly selected fields was scored.
The data of PC-12 cells with GFP-LC3 expression without any treatment of neferine was used as control.

Data set [4] has as its system Atg7 wild-type mouse embryonic fibroblasts (Atg7+/+). The data set is described as follows: GFP-LC3 puncta in Atg7 wild-type MEFs. Conditions: 7.5 μM neferine, 24 h, Atg7+/+ MEFs (FIGS. 4A, 4B). The data set is classed as cell-based. The procedure: as §1, with “In brief, both Atg7 wild-type and deficient mouse embryonic fibroblasts (MEFs) grown on” for “In brief, PC-12 cells grown on”, “plate were treated with indicated concentrations of neferine. The cells were then fixed in” for “plate were fixed in”

Data set [5] concerns mutant huntingtin EGFP-HDQ 55/74. The data set is described as follows: Removal of mutant huntingtin EGFP-HDQ 55/74, immunoblotting against EGFP. The data set is classed as cell-based, rat. Conditions: 7.5 μM neferine, 24 hours, transfected PC-12 cells (FIG. 3). The protocol: PC-12 cells were transfected transiently with EGFP-HDQ 55/74 plasmids for 24 hours using Lipofectamine Plus LTX reagent (Invitrogen) according to the manufacturer's protocol. The transfected cells were then treated with 7.5 μM neferine for 24 hours. The removal of mutant huntingtin, EGFP-HDQ 55 and 74, was then quantitated by immunoblotting with antibody against EGFP.

Data set [6] has as its system PC-12 cells expressing GFP-LC3. As to the kind of experiment: Quantification of neferine-mediated autophagy (GFP-LC3 puncta) in the presence of compound C. The data set is classed as cell-based, rat. Conditions: 7.5 μM neferine plus compound C 5 μM, PC-12 cells (FIGS. 2B, 2C). The procedure: GFP-LC3 puncta formation was quantified as previously described. In brief, PC-12 cells expressing GFP-LC3 were treated with 7.5 μM neferine in the presence of compound C (CC, 5 μM) for 12 h. The cells were then fixed in 4% paraformaldehyde for 20 minutes at room temperature and then rinsed with PBS. Slides were mounted with FluorSave™ mounting media (Calbiochem) and examined by fluorescence microscopy. To quantify for autophagy, the percentage of cells with punctate GFP-LC3 fluorescence was calculated by counting the number of the cells with punctate GFP-LC3 fluorescence in GFP-positive cells. A minimum of 150 cells from 3 randomly selected fields was scored.

Data set [7] concerns EGFP-HDQ74 transfected Atg7 deficient MEFs. As to the kind of experiment: Mutant huntingtin aggregates in EGFP-HDQ74 transfected Atg7 deficient MEFs. Type of data set: cell-based, mouse. Conditions: 7.5 μM neferine, 24 h, Atg7−/− cells (FIGS. 5A, 5B). The procedure: (§2) In brief, both EGFP-HDQ74 transfected Atg7 wild-type and deficient mouse embryonic fibroblasts (MEFs) grown on coverslips in a 6-well plate were treated with indicated concentrations of neferine. The cells were then fixed in 4% paraformaldehyde for 20 minutes at room temperature and then rinsed with PBS. Slides were mounted with FluorSave™ mounting media (Calbiochem, San Diego, Calif.) and examined by fluorescence microscopy. The number of cells with GFP-aggregates formation was examined under the Nikon ECLIPSE 80i microscope. Representative images were captured with CCD digital camera Spot RT3™ (Diagnostic Instruments, Inc., Melville, N.Y.). To quantify for the clearance of mutant huntingtin, the percentage of cells with GFP-aggregates was calculated by counting the number of the cells with […] in GFP-positive cells. A minimum of 150 cells from 3 randomly selected fields was scored.

Data set [8] concerns EGFP-HDQ74 transfected Atg7 wild-type MEFs. The data set is described as follows: Mutant huntingtin aggregates in EGFP-HDQ74 transfected Atg7 wild-type MEFs. The data set is classed as cell-based, mouse. Conditions: 7.5 μM neferine, 24 h, Atg7+/+ cells (FIGS. 5A, 5B). The protocol:
as §2

In data set [9] the test system is PC-12 cells transfected with mutant huntingtin EGFP-HDQ 55 and 74. As to the kind of experiment: MTT cytotoxicity assay in PC-12 cells expressing mutant huntingtin. Type of data set: cell-based, rat. Particulars: 7.5 μM neferine, 24 h, PC-12 cells with EGFP-HDQ 55 or EGFP-HDQ 74 (FIG. 7). The protocol: Cell cytotoxicity assay: Cytotoxicity was assessed using the 3-(4,5-dimethylthiazol-2-yl)-2,5-diphenyltetrazolium bromide assay. PC-12 cells were transfected with or without mutant huntingtin EGFP-HDQ 55 and 74 for 16 h, the PC-12 cells (4000 cells) were then seeded on 96-well plates per well and then exposed to 7.5 μM of neferine for 24 h […]. Subsequently, 10 μL of MTT reagents was added to each well and incubated at 37° C. for 4 hours, followed by the addition of 100 μL solubilization buffer (10% SDS in 0.01 mol/L HCl) and overnight incubation. Absorbance at 585 nm was determined from each well on the following day. The percentage of cell viability was calculated using the following formula: Cell viability (%)=Cells number treated/Cells number DMSO control×100. Data was obtained from three independent experiments.
(In general: Formazan colour is commonly taken as a measure of viable cells.)

Data set [10] deals with PC-12 cells. As to the kind of experiment: Cytotoxicity, crystal violet staining cell viability assay. Type of data set: cell-based, rat. Particulars: 7.5 μM neferine, 24 hours, PC-12 cells (FIGS. 6A, 6B). The protocol:
The test compound of neferine was dissolved in dimethyl sulfoxide (DMSO) at a final concentration of 100 mmol/L and stored at −20° C. For cell viability assay measured by crystal violet staining, PC-12 cells were incubated in 35 mm disc followed by the addition of 7.5 μM neferine for 24 hours. The cells were then incubated with crystal violet for 10 minutes followed by a ddH2O wash. The stained cell images were captured by CCD digital camera Spot RT3™ under the Nikon ECLIPSE 80i microscope with 4× magnification. Cell viability was quantified by dissolving stained cells in 10% acetic acid (200 μL/well). The colorimetric reading of the solute mixture was then determined by spectrophotometer at OD 560 nm. The percentage of cell viability was calculated using the following formula: Cell viability (%)=Cells number treated/Cells number DMSO control×100. Data were obtained from three independent experiments.

The test system of data set [11] is LC3-II. As to the kind of experiment: Detection of autophagic marker protein LC3 conversion (western blot). Particulars: PC-12 cells, with lysosomal protease inhibitors E64d and pepstatin A (FIG. 1D). Type of data set: cell-based, rat. The protocol:
After neferine treatments with or without autophagy inhibitor (3-Methyladenine, 3-MA) and protease inhibitor (10 μg/mL E64D and pepstain A), cells were harvested and lysed in RIPA buffer (Cell Signaling Technologies Inc., Beverly, Mass.). The cell lysates were then resolved by SDS-PAGE. After electrophoresis, the proteins from SDS-PAGE were transferred to nitrocellulose membrane which was then blocked with 5% non-fat dried milk for 60 minutes. The membrane was then incubated with LC3 primary antibodies (1:1000) in TBST overnight at 4° C. After that, the membrane was further incubated with HRP-conjugated secondary antibodies for 60 minutes. Finally, protein bands were visualized by using the ECL Western Blotting Detection Reagents (Invitrogen, Paisley, Scotland, UK).
To further confirm its autophagic activity, PC-12 cells treated with neferine were analyzed by western blot for LC3-I to LC3-II conversion. To differentiate that the autophagy effect was due to LC3-II formation, rather than failure of fusion between autophagosome and lysosomes, level of LC3-II was assayed with the presence of two lysosomal inhibitors (E64d and pepstatin A) that […].

For data set [12], the system named is Atg7-knockout mouse embryonic fibroblasts (Atg7−/−). The data set is described as follows: GFP-LC3 puncta in Atg7 deficient MEFs. Conditions: 7.5 μM neferine, 24 h, Atg7−/− MEFs (FIGS. 4A, 4B). Type of data set: cell-based. The protocol: GFP-LC3 puncta formation was quantified as previously described. In brief, both Atg7 wild-type and deficient mouse embryonic fibroblasts (MEFs) grown on coverslips in a 6-well plate were treated with indicated concentrations of neferine. The cells were then fixed in 4% paraformaldehyde for 20 minutes at room temperature and then rinsed with PBS. Slides were mounted with FluorSave™ mounting media (Calbiochem, San Diego, Calif.) and examined by fluorescence microscopy. The number of GFP-positive cells with GFP-LC3 puncta formation was examined under the Nikon ECLIPSE 80i microscope. Representative images were captured with CCD digital camera Spot RT3™ (Diagnostic Instruments, Inc., Melville, N.Y.). To quantify for autophagy, the percentage of cells with punctate GFP-LC3 fluorescence was calculated by counting the number of the cells with punctate GFP-LC3 fluorescence in GFP-positive cells. A minimum of 150 cells from 3 randomly selected fields was scored.

The subject of data set [13] is mutant huntingtin. Particulars: mouse model of Huntington's disease, ref. [10]; cited from earlier work.
[14] abbreviates: 7.5 μM neferine, 0-24 h, PC-12 cells (FIG. 2A).

Consider three compounds from patent publication US9119847B2, “Neferine and the use thereof in treating huntington disease” (Macau University of Science and Technology, priority 2013, dated 2015).

Structures are written as SMILES.

With `O=c1c(O)c(-c2ccc(O)c(O)c2)oc2cc(O)ccc12` [fisetin], in data set [1], the bioavailability result is listed as “poor bioavailability”, the effective concentration entry is recorded as “high effective concentration” and the lipophilicity result is recorded as “low lipophilicity”.
In the case of `COc1ccc(C[C@@H]2c3cc(Oc4cc(C[C@@H]5c6cc(OC)c(OC)cc6CCN5C)ccc4O)c(OC)cc3CCN2C)cc1` [neferine], the “LC3-II level in presence of AMPK inhibitor compound C” value in data set [2] (7.5 μM neferine plus compound C 5 μM, 24 h, PC-12 cells, western blot (FIG. 2D)) is recorded as “decrease in LC3-II level”. Besides, in data set [2] (setting [14]), the p70S6K phosphorylation result is “concomitant reduction in its downstream p70S6K phosphorylation” and the “phosphorylation of AMPK” value is reported as “activate the phosphorylation of AMPK in a time dependent manner”. The “percentage of cells with GFP-LC3 puncta formation” value in [3] (7.5 μM neferine, 24 h, PC-12 cells with GFP-LC3 expression, vs untreated control (FIGS. 1B, 1C)) is on record as “increased the percentage of cells with GFP-LC3 puncta formation significantly”. For the same compound, in data set [3] (neferine plus 3-Methyladenine (3-MA), PC-12 cells), the “GFP-LC3 puncta formation in presence of autophagy inhibitor 3-MA” value was “significant reduction in GFP-LC3 puncta formation”. Further, the GFP-LC3 puncta formation entry in [4] is listed as “induce GFP-LC3 puncta formation”. For the same compound, in [5], the “clearance of overexpressed EGFP-tagged mutant huntingtin EGFP-HDQ 55” value is recorded as “enhanced the clearance” and the “clearance of overexpressed EGFP-tagged mutant huntingtin EGFP-HDQ 74” value was “enhanced the clearance”. Moreover, the “neferine-induced GFP-LC3 puncta formation in presence of AMPK inhibitor compound C” value in [6] is listed as “significant reduction in neferine-induced GFP-LC3 puncta formation”. Further, in [7], the “clearance of mutant huntingtin EGFP-HDQ74 inclusions” value was “not in autophagy-deficient cells”. Also, in data set [8], the “clearance of mutant huntingtin EGFP-HDQ74 inclusions” value is listed as “enhance the clearance of mutant huntingtin EGFP-HDQ74 inclusions”. Moreover, in data set [9], the “cell death induced by mutant huntingtin (cell viability, MTT)” value is recorded as “attenuated cell death induced by mutant huntingtin”. For the same compound, the “cytotoxicity / morphological damage (crystal violet assay)” value in [10] is recorded as “no significant morphological damage”. For the same compound, in [11], the “rate of LC3-II formation (LC3-I to LC3-II conversion)” value is reported as “increases the rate of LC3-II formation”. The GFP-LC3 puncta formation entry in data set [12] is listed as “not in Atg7-knockout mouse embryonic fibroblasts”.
Take `C1COC(NC(C2CC2)C2CC2)=N1` [rilmenidine]: the “toxicity of mutant huntingtin” value in data set [13] is “attenuate the toxicity of mutant huntingtin”.
